Patent US20150011566A1, “N-PHENYLPIPERAZINE DERIVATIVES THAT ARE ANTAGONISTS OF A1A, A1D ADRENOCEPTORS AND 5-HT1A RECEPTORS FOR THE TREATMENT OF BENIGN PROSTATE HYPERPLASIA, PHARMACEUTICAL COMPOSITIONS CONTAINING THE SAME” (UNIVERSIDADE FEDERAL DO RIO DE JANEIRO-UFRJ, priority 2012, published 2015)
Where two headings read alike, the source gives them in different places.

Legend:
α1A adrenoceptors = target: T1, α1A adrenoceptors (Oryctolagus cuniculus, UniProt O02824); assay: Binding of [3H]-prazosin to α1A adrenoceptors (rabbit liver membranes)
T1 construct: from tissue; host or cells: rabbit liver membranes
T1 sequence (O02824 1-466): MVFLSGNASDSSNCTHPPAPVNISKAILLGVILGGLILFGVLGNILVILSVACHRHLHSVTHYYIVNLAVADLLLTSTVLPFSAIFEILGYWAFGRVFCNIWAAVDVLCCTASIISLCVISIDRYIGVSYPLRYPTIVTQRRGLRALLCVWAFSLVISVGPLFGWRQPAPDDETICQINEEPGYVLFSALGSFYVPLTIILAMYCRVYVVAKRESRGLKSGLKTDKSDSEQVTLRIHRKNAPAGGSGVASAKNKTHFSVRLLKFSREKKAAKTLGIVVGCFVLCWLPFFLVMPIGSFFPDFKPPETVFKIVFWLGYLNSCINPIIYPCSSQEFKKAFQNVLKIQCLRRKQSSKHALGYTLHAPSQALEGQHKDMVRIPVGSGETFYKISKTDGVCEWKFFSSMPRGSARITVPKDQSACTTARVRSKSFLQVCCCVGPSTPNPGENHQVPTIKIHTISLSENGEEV
Method: Following the protocol described previously in the literature, membrane preparations from rabbit liver homogenates were obtained. Such membrane preparations are enriched in adrenoceptor subtype α1A. The tissue obtained as described above (˜30 g) was naturally thawed, immersed in thawing solution (0.25 M sucrose, 1 mM EGTA and 5 mM Tris (pH 7.4)) freezing. Then, the tissue was transferred to a petri dish on ice containing solution for homogenizing liver (2 mM EDTA, 100 mM NaCl and 50 mM Tris (pH 7.4)) freezing. The liver was then carefully cut by ignoring the most fibrous part.
Then, the material was transferred into a beaker where with the aid of Ultra-Turrax homogenizer (speed 24,000 RPM), the tissue was homogenized with the same buffer solution at a ratio of 6 parts of the solution to 1 part material. The material was homogenized three times for 20 seconds; in the intervals the solution was allowed to stand for 1 minute on ice. Subsequently, the homogenate was subjected to centrifugation 10,000×g for 10 minutes at 4° C., yielding a supernatant which was subjected to ultracentrifugation 80,000×g for 40 minutes at 4° C. yielding a pellet. This pellet was resuspended in buffer solution without NaCl (1 mM EDTA and 50 mM Tris (pH 7.4)) and further subjected to ultracentrifugation in the same previous conditions. The pellet obtained was resuspended in this step storage solution (0.25 M sucrose, 1 mM EGTA and 5 mM Tris (pH 7.4)) with the aid of a manual type Dounce homogenizer and stored in aliquots at 300 μL liquid nitrogen. In all protocols for membrane preparations the dosage of protein were performed according to the method of LOWRY et al. (J. Biol. Chem. 193 (1):265-275, 1951).
The standardization of the assay was done as described in the literature. […] Assays were performed in triplicate.
In both assays, membrane preparations were incubated at 0° C. for 45 minutes. After the incubation period, the reaction was stopped by adding 4 mL of ice-cold wash buffer (50 mM Tris-HCl, pH 7.4) followed by rapid vacuum filtration on glass fiber filter (GMF 3 Filtrak®). The filters were washed four times with 4 ml of the same solution under vacuum to remove all free radioligand. Then the filters were dried and placed in vials containing 5 ml scintillation fluid (4% PPO, 0.1% POPOP w/v in toluene). The radioactivity retained on the filters was then determined in a liquid scintillation counter (Packard Tri-Carb 1600 TR).
This procedure aims to obtain a saturation curve with less expenditure of radioactive substances and biological materials. Since competition assays allow us to construct inhibition curves of specific binding of radioligand. The higher the concentration of competitor agent employed in this case the LDT's study, the greater the competition for specific receptors, decreasing the formation radioligand-receptor complex. This can be seen by the gradual decrease of radioactivity retained on the filters is detected by the counter liquid scintillation.
These values were converted to Ki values (competitive dissociation constant at equilibrium or inhibition constant) using the Cheng-Prusoff equation (Eq. 2).

α1B adrenoceptors = target: T2, α1B adrenoceptors (Rattus norvegicus, UniProt P15823); assay: Binding of [3H]-prazosin to α1B adrenoceptors (rat liver membranes); details: for affinity range for α1B adrenoceptor: in words
T2 construct: from tissue; host or cells: rat liver membranes
T2 sequence (P15823 1-515): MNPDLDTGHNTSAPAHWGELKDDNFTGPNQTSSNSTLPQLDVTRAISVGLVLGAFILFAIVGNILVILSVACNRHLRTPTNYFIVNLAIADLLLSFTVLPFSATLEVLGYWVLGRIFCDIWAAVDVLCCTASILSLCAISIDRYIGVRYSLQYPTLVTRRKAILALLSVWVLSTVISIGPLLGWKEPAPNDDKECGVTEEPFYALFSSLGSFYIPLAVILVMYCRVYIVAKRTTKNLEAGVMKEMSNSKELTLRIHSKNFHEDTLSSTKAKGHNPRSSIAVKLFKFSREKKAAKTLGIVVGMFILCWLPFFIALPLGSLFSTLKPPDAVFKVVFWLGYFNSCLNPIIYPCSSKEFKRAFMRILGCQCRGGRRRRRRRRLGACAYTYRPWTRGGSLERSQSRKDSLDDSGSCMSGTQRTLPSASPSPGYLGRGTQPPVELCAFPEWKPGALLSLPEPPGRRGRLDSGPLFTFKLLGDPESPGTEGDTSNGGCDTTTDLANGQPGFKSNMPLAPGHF
Method: Following the protocol described previously in the literature membrane preparations from rat liver homogenates were obtained. Such membrane preparations are enriched in the adrenoceptor subtype α1B. The tissues obtained as described above (4 Rat livers corresponding to ˜30 g) were thawed and homogenized perforated similarly performed for rabbit liver. The homogenate obtained was filtered through four layers of gauze and then subjected to centrifugation 5,000×g for 20 minutes at 4° C., yielding a supernatant which was subsequently ultracentrifuged at 100,000×g for 60 minutes at 4° C., obtaining a pellet. This pellet was resuspended in buffer free of NaCl and subjected to a further […] under the same conditions.
Binding assays were standardized for α1B adrenoceptors in the same way adrenoceptor binding assays for α1A according to the literature, i.e. saturation and competition assays were performed on membrane preparations from rat liver, in this case using […] protein per tube contained […] suspension, in addition to various concentrations of LDT's (10^−9-10^−6 M).

[1] = Table 5, Cheng-Prusoff, read-out: α1A Ki
[2] = Table 5, Cheng-Prusoff, read-out: α1B Ki
[3] = Table 4, Cheng-Prusoff, read-out: Ki
[4] = Table 4, read-out: log CI50 ± EPM (converted)

Structure (SMILES) | α1A log IC50 (M) (α1A adrenoceptors; Table 5) | Ki (α1A adrenoceptors; [1]) | α1B log IC50 (M) (α1B adrenoceptors; Table 5) | Ki (α1B adrenoceptors; [2]) | IC50 (α1A adrenoceptors) | Ki (α1A adrenoceptors) | IC50 (α1B adrenoceptors) | Ki (α1B adrenoceptors) | further results
CCN1CCN(c2ccccc2OC)CC1 [LDT 62] | −6.51 ± 0.2 M | 2.61e-07 M | −6.27 ± 0.05 M | 448 nM | – | – | – | – | –
CCN1CCN(c2ccccc2O)CC1 [LDT 70] | −6.45 ± 0.07 M | 3.04e-07 M | −6.07 ± 0.10 M | 715 nM | – | – | – | – | –
COc1ccccc1N1CCN(CCC2CCCCC2)CC1 [LDT 6] | – | – | – | – | – | – | – | – | Ki (α1A adrenoceptors; Table 3, Cheng-Prusoff, read-out: Ki (M) High Affinity site): 2.16e-09 M; IC50 (α1A adrenoceptors; read-out: log CI50 ± EPM (M) High Affinity site (converted)): 2.63e-09 M; Ki (α1B adrenoceptors; [3]): 154 nM; IC50 (α1B adrenoceptors; [4]): 200 nM; affinity range for α1B adrenoceptor (α1B adrenoceptors): range μM
CCCCCCCCN1CCN(c2ccccc2OC)CC1 [LDT 68] | −7.35 ± 0.2 a M | 3.8e-08 M | −6.69 ± 0.10 M | 173 nM | – | – | – | – | –
CCCCN1CCN(c2ccccc2OC)CC1 [LDT 64] | −6.84 ± 0.04 M | 1.24e-07 M | −6.33 ± 0.16 M | 393 nM | – | – | – | – | –
CCN1CCN(c2ccccc2)CC1 [LDT 39] | −6.36 ± 0.21 M | 3.74e-07 M | −6.29 ± 0.10 M | 425 nM | – | – | – | – | –
CCCCCCCN1CCN(c2ccccc2OC)CC1 [LDT 67] | −7.02 ± 0.12 a M | 8.1e-08 M | −6.87 ± 0.10 M | 113 nM | – | – | – | – | –
CCCCCN1CCN(c2ccccc2OC)CC1 [LDT 65] | – | – | – | – | 7.94e-08 M | 6.7e-08 M | 331 nM | 277 nM | –
CCOc1ccccc1N1CCN(CCc2ccc3c(c2)OCO3)CC1 [LDT 8] | – | – | – | – | 4.57e-09 M | 3.76e-09 M | 11.7 nM | 9.07 nM | affinity range for α1B adrenoceptor (α1B adrenoceptors): nanomolar range
COc1ccc(CCN2CCN(c3ccccc3OC)CC2)cc1 [LDT 4] | – | – | – | – | 1.07e-08 M | 8.81e-09 M | 30.2 nM | 23.3 nM | –
COc1ccccc1N1CCN(CCc2ccccc2)CC1 [LDT 2] | – | – | – | – | 1.91e-08 M | 1.57e-08 M | 63.1 nM | 48.7 nM | –
CCOc1ccccc1N1CCN(CC)CC1 [LDT 69] | −7.41 ± 0.25 a M | 3.3e-08 M | −6.53 ± 0.11 M | 185 nM | – | – | – | – | –
CCCCCCN1CCN(c2ccccc2OC)CC1 [LDT 66] | −7.29 ± 0.11 a M | 4.3e-08 M | −6.51 ± 0.18 M | 221 nM | – | – | – | – | –
CCCN1CCN(c2ccccc2OC)CC1 [LDT 63] | −6.50 ± 0.08 M | 2.7e-07 M | −6.22 ± 0.05 M | 511 nM | – | – | – | – | –
COc1ccc(CCN2CCN(c3ccccc3OC)CC2)cc1OC [LDT 5] | – | – | – | – | 4.47e-09 M | 3.67e-09 M | – | – | Ki (α1B adrenoceptors; [3]): 12.2 nM; IC50 (α1B adrenoceptors; [4]): 15.8 nM
COc1cccc(CCN2CCN(c3ccccc3OC)CC2)c1 [LDT 3] | – | – | – | – | 5.62e-09 M | 4.63e-09 M | 95.5 nM | 73.7 nM | –
